According to article PMC12689647, “Evaluation of bromadiolone combined with ciprofloxacin, vitamin D, aspirin, and cinnamon as an apoptosis-mediated rodenticide strategy” (Scientific Reports, 2025):
Where two headings read alike, the source gives them in different places.

What was measured:
[1] = system: male wild rats of Rattus norvegicus; format: in vivo; settings: oral, 8 treated, one week
liver of male wild rats = test: Semi-quantitative scoring of histopathological lesions in the liver (H&E); format: in vivo, Rattus norvegicus; set-up: key to Fatty deposition / Hemorrhage / Thickening of blood vessels / Loss of liver architecture: (-) Absent lesion; (+) Slight (< 25%); (++) Moderate (from 25–50%); (+++) Severe (> 50%); settings: liver H&E lesion score; oral, 21 days
Experimental: (§1) Adult male rats (n = 7 × 9 = 63), weighing 150–200 g, were randomized and divided into seven groups. Group I served as the control. Group II received the vehicle control (0.1 ml/100 g ethanol). Group III was treated with bromadiolone (B) at ½ LD₅₀ (0.8 mg/kg)[28]. Group IV received bromadiolone (0.8 mg/kg) + ciprofloxacin (Anti.20 mg/kg)[29]. Group V received bromadiolone (0.8 mg/kg) + ciprofloxacin (20 mg/kg) + vitamin D (Vit. D 35 mg/kg)[30]. Group VI received bromadiolone (0.8 mg/kg) + ciprofloxacin (20 mg/kg) + vitamin D (35 mg/kg) + cinnamon (Cin. 2 g/kg)[31]. Group VII received bromadiolone (0.8 mg/kg) + ciprofloxacin (20 mg/kg) + vitamin D (35 mg/kg) + aspirin (A. 150 mg/kg)[32]. All doses were administered orally to wild rats over 21 days. The chemical we used for the euthanizing process: rats were narcotized by Ketamine + xylazine injection (IP) and then sacrificed by slaughtering.
. Hematoxylin, eosin stains was applied to 5 μm-thick paraffin Sect[38]. Four categories were established based on the histological evaluation of nine liver tissue lesions: (−) no lesion, (+) mild (less than 25%), (++) moderate (between 25% and 50%), and (+++) severe (more than 50%)[39]. We examined about 5 photos for each rat in each groups; 5 × 63 = 315 photos for assessments. Examination and photography were conducted using a digital camera (ToupTek ToupView, copyright 2019, version x86, compatible with Windows XP/Vista/7/8/10, China) and a light microscope (Olympus CX31, Japan).

[2] = system: male wild rats of Rattus norvegicus; format: in vivo; settings: oral
liver cells = test: Apoptosis estimation by acridine orange fluorescence staining; format: in vivo, Rattus norvegicus; settings: AO staining, oral, 21 days
Experimental: as §1
Before staining with 0.01% acridine orange (AO) (stock solution: 0.1% AO in distilled water, diluted with phosphate buffer to a staining solution at pH 7.2), the sample was quickly passed through a graded alcohol series (80 − 50%) followed by distilled water. […] Acridine orange emits sharp green fluorescence when bound to DNA (apoptosis).

[3] = system: male wild rats of Rattus norvegicus; format: in vivo; settings: oral; for Mortality% / Dead: one week; for Linear probit / Linear response %: probit fit; for Dead: 8 treated
Experimental: An approximate LD₅₀ was initially determined as a pilot study using the staircase method. Seventy adult male rats weighing 150–200 g were randomized and divided into ten groups (n = 10 × 7). Group I served as the control, while groups II, III, IV, V, VI, VII, VIII, IX, and X were treated orally with the following doses of bromadiolone, respectively: 0.3, 0.6, 0.9, 1.1, 1.2, 1.4, 1.8, 2.2, and 2.8 mg/kg b.w. The animals were observed during the first 2 h and then at 6 and 24 h for any toxic symptoms. Time to death and mortality were recorded over four days following administration. After one week, the LD₅₀ value was determined using probit analysis as described in[27].

[4] = male wild rats, probit analysis software

Q: Which Dead ([1]; dose 0.3 mg/kg b.w.) does the source give for `O=c1oc2ccccc2c(O)c1C(CC(O)c1ccc(-c2ccc(Br)cc2)cc1)c1ccccc1` (stereo not drawn) [Bromadiolone] here?
A: 1

Q: And the Dead ([1]; dose 0.6 mg/kg b.w.)?
A: 2

Q: What about the Dead ([1]; dose 2.2 mg/kg b.w.) of the same compound?
A: 5

Q: What about the Cellular infiltration (liver of male wild rats) of the same compound?
A: ++ ((++) Moderate (from 25–50%))

Q: And the Congested blood vessels (liver of male wild rats)?
A: ++ ((++) Moderate (from 25–50%))

Q: And the Dilated blood sinusoids (liver of male wild rats)?
A: + ((+) Slight (< 25%))

Q: And the Fatty deposition (liver of male wild rats)?
A: -

Q: And the “Features of necrosis: Karyolysis” value (liver of male wild rats)?
A: + ((+) Slight (< 25%))

Q: And the “Features of necrosis: Karyorrhexis” value (liver of male wild rats)?
A: + ((+) Slight (< 25%))

Q: What about the “Features of necrosis: Pyknosis” value (liver of male wild rats) of the same compound?
A: ++ ((++) Moderate (from 25–50%))

Q: What about the Hemorrhage (liver of male wild rats) of the same compound?
A: -

Q: And the “Loss of liver architecture” value (liver of male wild rats)?
A: -

Q: What about the Necrotic areas (liver of male wild rats) of the same compound?
A: + ((+) Slight (< 25%))

Q: And the “Thickening of blood vessels” value (liver of male wild rats)?
A: -

Q: And the Vacuolated cytoplasm (liver of male wild rats)?
A: ++ ((++) Moderate (from 25–50%))

Q: What about the Observed response % ([2]; time 5 days) of the same compound?
A: 50%

Q: What about the Observed response % ([2]; time 6 days) of the same compound?
A: 62.5%

Q: What about the Linear probit ([2]; time 6 days, probit fit) of the same compound?
A: 5.4393

Q: And the Linear response % ([2]; time 6 days, probit fit)?
A: 66.9788%

Q: What about the “decrease in normal cells compared to the control” value (liver cells) of the same compound?
A: 18.66%

Q: What about the “increase in apoptotic cells compared to the control” value (liver cells) of the same compound?
A: 109.72%

Q: What about the Mortality% ([3]; dose 0.3 mg/kg b.w.) of the same compound?
A: 12.5%

Q: And the Observed response % ([3]; dose 0.3 mg/kg b.w., probit analysis)?
A: 14.286%

Q: What about the Linear probit ([3]; dose 0.3 mg/kg b.w.) of the same compound?
A: 3.6051

Q: And the Linear response % ([3]; dose 0.3 mg/kg b.w.)?
A: 8.159%

Q: And the Mortality% ([3]; dose 0.6 mg/kg b.w.)?
A: 25%

Q: What about the Observed response % ([3]; dose 0.6 mg/kg b.w., probit analysis) of the same compound?
A: 14.286%

Q: What about the Linear probit ([3]; dose 0.6 mg/kg b.w.) of the same compound?
A: 4.1699

Q: What about the Linear response % ([3]; dose 0.6 mg/kg b.w.) of the same compound?
A: 20.3258%

Q: What about the Dead ([3]; dose 0.9 mg/kg b.w.) of the same compound?
A: 3

Q: And the Mortality% ([3]; dose 0.9 mg/kg b.w.)?
A: 37.5%

Q: And the Observed response % ([3]; dose 0.9 mg/kg b.w., probit analysis)?
A: 28.571%

Q: And the Linear probit ([3]; dose 0.9 mg/kg b.w.)?
A: 4.5

Q: What about the Linear response % ([3]; dose 0.9 mg/kg b.w.) of the same compound?
A: 30.855%

Q: And the Dead ([3]; dose 1.1 mg/kg b.w.)?
A: 3

Q: And the Mortality% ([3]; dose 1.1 mg/kg b.w.)?
A: 37.5%

Q: And the Observed response % ([3]; dose 1.1 mg/kg b.w., probit analysis)?
A: 28.571%

Q: What about the Linear probit ([3]; dose 1.1 mg/kg b.w.) of the same compound?
A: 4.6635

Q: What about the Linear response % ([3]; dose 1.1 mg/kg b.w.) of the same compound?
A: 36.8278%

Q: And the Dead ([3]; dose 1.2 mg/kg b.w.)?
A: 4

Q: And the Mortality% ([3]; dose 1.2 mg/kg b.w.)?
A: 50%

Q: And the Observed response % ([3]; dose 1.2 mg/kg b.w., probit analysis)?
A: 42.857%

Q: What about the Linear probit ([3]; dose 1.2 mg/kg b.w.) of the same compound?
A: 4.7344

Q: And the Linear response % ([3]; dose 1.2 mg/kg b.w.)?
A: 39.5276%

Q: What about the Dead ([3]; dose 1.4 mg/kg b.w.) of the same compound?
A: 4

Q: And the Mortality% ([3]; dose 1.4 mg/kg b.w.)?
A: 50%

Q: What about the Observed response % ([3]; dose 1.4 mg/kg b.w., probit analysis) of the same compound?
A: 42.857%

Q: And the Linear probit ([3]; dose 1.4 mg/kg b.w.)?
A: 4.8599

Q: What about the Linear response % ([3]; dose 1.4 mg/kg b.w.) of the same compound?
A: 44.4304%

Q: And the Dead ([3]; dose 1.8 mg/kg b.w.)?
A: 5

Q: And the Mortality% ([3]; dose 1.8 mg/kg b.w.)?
A: 62.5%

Q: And the Observed response % ([3]; dose 1.8 mg/kg b.w., probit analysis)?
A: 57.143%

Q: And the Linear probit ([3]; dose 1.8 mg/kg b.w.)?
A: 5.0647

Q: And the Linear response % ([3]; dose 1.8 mg/kg b.w.)?
A: 52.578%

Q: What about the Mortality% ([3]; dose 2.2 mg/kg b.w.) of the same compound?
A: 62.5%

Q: What about the Observed response % ([3]; dose 2.2 mg/kg b.w., probit analysis) of the same compound?
A: 57.143%

Q: What about the Linear probit ([3]; dose 2.2 mg/kg b.w.) of the same compound?
A: 5.2281

Q: What about the Linear response % ([3]; dose 2.2 mg/kg b.w.) of the same compound?
A: 59.022%

Q: What about the Dead ([3]; dose 2.8 mg/kg b.w.) of the same compound?
A: 8

Q: What about the Mortality% ([3]; dose 2.8 mg/kg b.w.) of the same compound?
A: 100%

Q: What about the Observed response % ([3]; dose 2.8 mg/kg b.w., probit analysis) of the same compound?
A: 71.429%

Q: And the Linear probit ([3]; dose 2.8 mg/kg b.w.)?
A: 5.4246

Q: And the Linear response % ([3]; dose 2.8 mg/kg b.w.)?
A: 66.4427%

Q: What about the LD25 [3, 4] of the same compound?
A: 0.7264 mg/kg

Q: What about the LD50 [3, 4] of the same compound?
A: 1.6626 mg/kg

Q: And the LD75 [3, 4]?
A: 3.8056 mg/kg

Q: And the LD90 [3, 4]?
A: 8.0187 mg/kg

Q: And the LD95 [3, 4]?
A: 12.5257 mg/kg

Q: And the LD99 [3, 4]?
A: 28.9136 mg/kg

Q: And the “LT25, Time” value [3, 4]?
A: 2.187 days

Q: And the “LT50, Time” value [3, 4]?
A: 4.03 days

Q: What about the “LT75, Time” value [3, 4] of the same compound?
A: 7.426 days

Q: What about the “LT90, Time” value [3, 4] of the same compound?
A: 12.87 days

Q: And the “LT95, Time” value [3, 4]?
A: 17.89 days

Q: What about the “LT99, Time” value [3, 4] of the same compound?
A: 33.17 days

Q: What about the LD50 ([3]; male wild rats, probit analysis software, listed as bromadiolone) of the same compound?
A: 1.6 mg/kg

Q: What about the Observed response % ([3]; time 1 day) of the same compound?
A: 12.5%

Q: And the Linear probit ([3]; time 1 day)?
A: 3.4617

Q: What about the Linear response % ([3]; time 1 day) of the same compound?
A: 6.209%

Q: And the Observed response % ([3]; time 2 days)?
A: 12.5%

Q: What about the Linear probit ([3]; time 2 days) of the same compound?
A: 4.2266

Q: What about the Linear response % ([3]; time 2 days) of the same compound?
A: 21.9652%

Q: And the Observed response % ([3]; time 3 days)?
A: 37.5%

Q: What about the Linear probit ([3]; time 3 days) of the same compound?
A: 4.6741

Q: What about the Linear response % ([3]; time 3 days) of the same compound?
A: 37.2284%

Q: What about the Observed response % ([3]; time 4 days) of the same compound?
A: 50%

Q: And the Linear probit ([3]; time 4 days)?
A: 4.9918

Q: And the Linear response % ([3]; time 4 days)?
A: 49.6729%

Q: And the Linear probit ([3]; time 5 days)?
A: 5.2381

Q: And the Linear response % ([3]; time 5 days)?
A: 59.4089%

Q: What about the Observed response % ([3]; time 7 days) of the same compound?
A: 87.5%

Q: What about the Linear probit ([3]; time 7 days) of the same compound?
A: 5.6093

Q: And the Linear response % ([3]; time 7 days)?
A: 72.8843%
